These results are taken from patent US8293770B2, “Pyrrolidine derivatives as NK-3 receptor antagonists” (Hoffmann-La Roche Inc., priority 2008, dated 2012).

Molecules are shown by their SMILES.

Tested on in the first experiment: not given
Assay: not given
As to conditions: phase II trial; altered behavior, delusion, hallucinations, extreme emotions, excited motor activity, incoherent speech; cited from earlier work.
`CC(=O)N(C)C1(c2ccccc2)CCN(CCC[C@]2(c3ccc(Cl)c(Cl)c3)CCCN(C(=O)c3ccccc3)C2)CC1` [SR 142,801, Osanetant]: the “activity on positive symptoms of schizophrenia” value is listed as “active”.

The same experiment, now with this note: phase II trial; depression, anhedonia, social isolation or memory and attention deficits; cited from earlier work.
`CC(=O)N(C)C1(c2ccccc2)CCN(CCC[C@]2(c3ccc(Cl)c(Cl)c3)CCCN(C(=O)c3ccccc3)C2)CC1` [SR 142,801, Osanetant]: the “activity in the treatment of negative symptoms” value is “inactive”.

A further experiment concerns the target T1, recombinant human NK3 receptor (Homo sapiens, UniProt P29371).
T1 construct: expressed in transfected cells; host or cells: HEK293 cells (transient expression), membranes
T1 sequence (P29371 1-465): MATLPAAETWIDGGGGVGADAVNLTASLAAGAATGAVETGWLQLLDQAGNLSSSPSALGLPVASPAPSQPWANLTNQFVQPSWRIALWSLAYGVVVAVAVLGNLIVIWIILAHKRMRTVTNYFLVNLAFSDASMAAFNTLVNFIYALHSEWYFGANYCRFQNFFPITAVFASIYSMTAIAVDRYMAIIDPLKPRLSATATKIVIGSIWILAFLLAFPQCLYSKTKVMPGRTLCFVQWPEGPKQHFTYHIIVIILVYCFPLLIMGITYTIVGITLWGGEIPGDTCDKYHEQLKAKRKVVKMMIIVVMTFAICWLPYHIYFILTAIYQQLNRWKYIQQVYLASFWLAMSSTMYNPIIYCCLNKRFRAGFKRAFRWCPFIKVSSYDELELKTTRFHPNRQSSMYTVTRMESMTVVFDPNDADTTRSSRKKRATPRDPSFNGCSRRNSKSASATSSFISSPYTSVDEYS
The experiment can be described thus: [3H]SR142801 competition binding assay. The following applies: hNK3 receptor binding, [3H]SR142801, membranes from HEK293 cells transiently expressing recombinant human NK3 receptor. The protocol:
[^3H]SR142801 competition binding assay
hNK3 receptor binding experiment were performed using [^3H]SR142801 (Catalog No. TRK1035, specific activity: 74.0 Ci/mmol, Amersham, GE Healthcare UK limited, Buckinghamshire, UK) and membrane isolated from HEK293 cells transiently expressing recombinant human NK3 receptor. After thawing, the membrane homogenates were centrifuged at 48,000×g for 10 min at 4° C., the pellets were resuspended in the 50 mM Tris-HCl, 4 mM MnCl2, 1 μM phosphoramidon, 0.1% BSA binding buffer at pH 7.4 to a final assay concentration of 5 μg protein/well. […] At the end of the incubation, membranes were filtered onto unitfilter (96-well white microplate with bonded GF/C filter preincubated 1 h in 0.3% PEI+0.3% BSA, Packard BioScience, Meriden, Conn.) with a Filtermate 196 harvester (Packard BioScience) and washed 4 times with ice-cold 50 mM Tris-HCl, pH 7.4 buffer. Nonspecific binding was measured in the presence of 10 μM SB222200 for both radioligands. The radioactivity on the filter was counted (5 min) on a Packard Top-count microplate scintillation counter with quenching correction after addition of 45 μl of microscint 40 (Canberra Packard S. A., Zürich, Switzerland) and shaking for 1 h. Inhibition curves were fitted according to the Hill equation: y=100/(1+(x/IC50)^nH), where nH=slope factor using Excel-fit 4 software (Microsoft). IC50 values were derived from the inhibition curve and the affinity constant (Ki) values were calculated using the Cheng-Prussoff equation Ki=IC50/(1+[L]/KD) where [L] is the concentration of radioligand and KD is its dissociation constant at the receptor, derived from the saturation isotherm. All experiments were performed in duplicate and the mean±standard error (SEM) of the individual Ki values was calculated.
Consider `CN(Cc1ccc(C(F)(F)F)c(F)c1)[C@H]1CN(C(=O)c2ccc(-n3ccnc3)cc2)C[C@@H]1c1ccc(Cl)c(Cl)c1` (racemic) [Example 41, {(3SR,4RS)-3-(3,4-Dichloro-phenyl)-4-[(3-fluoro-4-trifluoromethyl-benzyl)-methyl-amino]-pyrrolidin-1-yl}-(4-imidazol-1-yl-phenyl)-methanone], for which the Ki was 10.7 nM. In the case of `COc1ncc(C(=O)N2C[C@H](c3ccc(Cl)c(Cl)c3)[C@@H](N(C)Cc3ccc(C(F)(F)F)c(F)c3)C2)cn1` (racemic) [Example 57, {(3SR,4RS)-3-(3,4-Dichloro-phenyl)-4-[(3-fluoro-4-trifluoromethyl-benzyl)-methyl-amino]-pyrrolidin-1-yl}-(2-methoxy-pyrimidin-5-yl)-methanone], the Ki is 22.3 nM. Same read-out and setting: as for `Cc1cc(C(=O)N2C[C@H](c3ccc(Cl)c(Cl)c3)[C@@H](N(C)Cc3ccc(C(F)(F)F)c(F)c3)C2)ccn1` (racemic) [Example 33, {(3SR,4RS)-3-(3,4-Dichloro-phenyl)-4-[(3-fluoro-4-trifluoromethyl-benzyl)-methyl-amino]-pyrrolidin-1-yl}-(2-methyl-pyridin-4-yl)-methanone], the figure is 11.1 nM; as for `CN(Cc1ccc(C(F)(F)F)c(F)c1)[C@H]1CN(C(=O)c2ccc(N3CCS(=O)(=O)CC3)nc2)C[C@@H]1c1ccc(Cl)c(Cl)c1` (racemic) [Example 64, {(3SR,4RS)-3-(3,4-Dichloro-phenyl)-4-[(3-fluoro-4-trifluoromethyl-benzyl)-methyl-amino]-pyrrolidin-1-yl}-[6-(1,1-dioxo-1-6-thiomorpholin-4-yl)-pyridin-3-yl]-methanone], 2 nM; as for `CN(Cc1ccc(C(F)(F)F)c(F)c1)[C@H]1CN(C(=O)c2ccc(-c3ccncc3)cc2)C[C@@H]1c1ccc(Cl)c(Cl)c1` (racemic) [Example 45, {(3SR,4RS)-3-(3,4-Dichloro-phenyl)-4-[(3-fluoro-4-trifluoromethyl-benzyl)-methyl-amino]-pyrrolidin-1-yl}-(4-pyridin-4-yl-phenyl)-methanone], 2.5 nM. On the same count and under the same terms, as for `Cc1ccc(C(=O)N2C[C@H](c3ccc(Cl)c(Cl)c3)[C@@H](N(C)Cc3ccc(C(F)(F)F)c(F)c3)C2)cn1` (racemic) [Example 25, {(3SR,4RS)-3-(3,4-Dichloro-phenyl)-4-[(3-fluoro-4-trifluoromethyl-benzyl)-methyl-amino]-pyrrolidin-1-yl}-(6-methyl-pyridin-3-yl)-methanone], the figure is 15.2 nM; as for `CN(Cc1ccc(C(F)(F)F)c(F)c1)[C@H]1CN(C(=O)c2ccc(C#N)cc2)C[C@@H]1c1ccc(Cl)c(F)c1` (racemic) [Example 66, 4-{(3SR,4RS)-3-(4-Chloro-3-fluoro-phenyl)-4-[(3-fluoro-4-trifluoromethyl-benzyl)-methyl-amino]-pyrrolidine-1-carbonyl}-benzonitrile], 12.6 nM; as for `CN(Cc1ccc(C(F)(F)F)c(F)c1)[C@H]1CN(C(=O)c2cccc(C#N)c2)C[C@@H]1c1ccc(Cl)c(Cl)c1` (racemic) [Example 9, 3-{(3SR,4RS)-3-(3,4-Dichloro-phenyl)-4-[(3-fluoro-4-trifluoromethyl-benzyl)-methyl-amino]-pyrrolidine-1-carbonyl}-benzonitrile], 47.4 nM. On the same count and under the same terms, as for `CN(Cc1ccc(C(F)(F)F)c(F)c1)[C@H]1CN(C(=O)c2ccc3nn[nH]c3c2)C[C@@H]1c1ccc(Cl)c(Cl)c1` (racemic) [Example 59, (3H-Benzotriazol-5-yl)-{(3SR,4RS)-3-(3,4-dichloro-phenyl)-4-[(3-fluoro-4-trifluoromethyl-benzyl)-methyl-amino]-pyrrolidin-1-yl}-methanone], the figure is 31.8 nM; as for `CN(Cc1ccc(C(F)(F)F)c(F)c1)[C@H]1CN(C(=O)c2ccc(-n3cncn3)cc2)C[C@@H]1c1ccc(Cl)c(Cl)c1` (racemic) [Example 40, {(3SR,4RS)-3-(3,4-Dichloro-phenyl)-4-[(3-fluoro-4-trifluoromethyl-benzyl)-methyl-amino]-pyrrolidin-1-yl}-(4-[1,2,4]triazol-1-yl-phenyl)-methanone], 2.7 nM; as for `CN(Cc1ccc(C(F)(F)F)c(F)c1)[C@H]1CN(C(=O)c2ccc(N3CCN(C(=O)OC(C)(C)C)CC3)nc2)C[C@@H]1c1ccc(Cl)c(Cl)c1` (racemic) [Example 63, 4-(5-{(3SR,4RS)-3-(3,4-Dichloro-phenyl)-4-[(3-fluoro-4-trifluoromethyl-benzyl)-methyl-amino]-pyrrolidine-1-carbonyl}-pyridin-2-yl)-piperazine-1-carboxylic acid tert-butyl ester], 24.7 nM. `CN(Cc1ccc(C#N)c(F)c1)[C@H]1CN(C(=O)c2ccc(C#N)cc2)C[C@@H]1c1ccc(Cl)c(Cl)c1` (racemic) [Example 18, 4-({[(3RS,4SR)-1-(4-Cyano-benzoyl)-4-(3,4-dichloro-phenyl)-pyrrolidin-3-yl]-methyl-amino}-methyl)-2-fluoro-benzonitrile]: the Ki came out at 42 nM. Same read-out and setting: as for `CN(Cc1ccc(C(F)(F)F)c(F)c1)[C@H]1CN(C(=O)c2cc(S(C)(=O)=O)ccc2F)C[C@@H]1c1ccc(Cl)c(Cl)c1` (racemic) [Example 20, {(3SR,4RS)-3-(3,4-Dichloro-phenyl)-4-[(3-fluoro-4-trifluoromethyl-benzyl)-methyl-amino]-pyrrolidin-1-yl}-(2-fluoro-5-methanesulfonyl-phenyl)-methanone], the figure is 41.7 nM; as for `CN(Cc1ccc(C(F)(F)F)c(F)c1)[C@H]1CN(C(=O)c2ccc3c(c2)OCO3)C[C@@H]1c1ccc(Cl)c(Cl)c1` (racemic) [Example 17, Benzo[1,3]dioxol-5-yl-{(3SR,4RS)-3-(3,4-dichloro-phenyl)-4-[(3-fluoro-4-trifluoromethyl-benzyl)-methyl-amino]-pyrrolidin-1-yl}-methanone], 38.3 nM; as for `Cc1cc(C(=O)N2C[C@H](c3ccc(Cl)c(Cl)c3)[C@@H](N(C)Cc3ccc(C(F)(F)F)c(F)c3)C2)ccc1C#N` (racemic) [Example 23, 4-{(3SR,4RS)-3-(3,4-Dichloro-phenyl)-4-[(3-fluoro-4-trifluoromethyl-benzyl)-methyl-amino]-pyrrolidine-1-carbonyl}-2-methyl-benzonitrile], 6.6 nM.
